Laboratory results from ChEMBL document CHEMBL1201862, “PubChem BioAssay data set” (2004).
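Briefly, cells in 96-well plates were exposed to five compound concentrations for 48 h, and endpoints were estimated by linear interpolation. At the GI50, growth is halved.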 Active and inactive are the calls of the source. Rule as the data show it: active = GI50 up to about 1.1 µM and inactive = higher.

Tests used:
Experiment in all cases: NCI-60 cell line screen, 48 h
KM12 = tested on: KM12
MOLT-4 = tested on: MOLT-4
OVCAR-8 = tested on: OVCAR-8
XF498 = tested on: XF498
SNB-78 = tested on: SNB-78
OVCAR-3 = tested on: OVCAR-3
NCI-H23 = tested on: NCI-H23
IGROV-1 = tested on: IGROV-1
HT-29 = tested on: HT-29
DLD-1 = tested on: DLD-1
TK-10 = tested on: TK-10
EKVX = tested on: EKVX
SF-539 = tested on: SF-539
NCI-H522 = tested on: NCI-H522
A498 = tested on: A498
SK-MEL-28 = tested on: SK-MEL-28
SR = tested on: SR
SNB-75 = tested on: SNB-75
RPMI-8226 = tested on: RPMI-8226
SF-268 = tested on: SF-268
UACC-62 = tested on: UACC-62
M19-MEL = tested on: M19-MEL
A549 = tested on: A549
Malme-3M = tested on: Malme-3M
HCT-116 = tested on: HCT-116
HOP-92 = tested on: HOP-92
U-251 = tested on: U-251
DMS-273 = tested on: DMS-273
NCI-H460 = tested on: NCI-H460
SW-620 = tested on: SW-620
M14 = tested on: M14
OVCAR-4 = tested on: OVCAR-4
SNB-19 = tested on: SNB-19
UO-31 = tested on: UO-31
SF-295 = tested on: SF-295
RXF 393 = tested on: RXF 393
HOP-62 = tested on: HOP-62
HCT-15 = tested on: HCT-15
LOX IMVI = tested on: LOX IMVI
HOP-18 = tested on: HOP-18
SK-MEL-5 = tested on: SK-MEL-5
CCRF-CEM = tested on: CCRF-CEM
OVCAR-5 = tested on: OVCAR-5
NCI-H226 = tested on: NCI-H226
SN12C = tested on: SN12C
KM-20L2 = tested on: KM-20L2
DMS-114 = tested on: DMS-114
UACC-257 = tested on: UACC-257
HL-60 = tested on: HL-60
COLO 205 = tested on: COLO 205
LXFL 529 = tested on: LXFL 529
CAKI-1 = tested on: CAKI-1
786-0 = tested on: 786-0
HCC 2998 = tested on: HCC 2998
SK-OV-3 = tested on: SK-OV-3
SK-MEL-2 = tested on: SK-MEL-2
ACHN = tested on: ACHN
K562 = tested on: K562

Measured: GI50

CC(C)c1ccc(O)c(=O)cc1 [GAMMA-THUJAPLICIN]
inactive: KM12 6.32 µM | MOLT-4 2.79 µM | OVCAR-8 3.46 µM | XF498 15.1 µM | SNB-78 20 µM | OVCAR-3 2.48 µM | NCI-H23 7.38 µM | IGROV-1 10.4 µM | HT-29 4.73 µM | DLD-1 5.56 µM | TK-10 16.1 µM | EKVX 10.1 µM | SF-539 2.38 µM | NCI-H522 3.39 µM | A498 19.6 µM | SK-MEL-28 12.6 µM | SR 1.66 µM | SNB-75 20.6 µM | RPMI-8226 5.13 µM | SF-268 4.06 µM | UACC-62 3.53 µM | M19-MEL 6.46 µM | A549 6.59 µM | Malme-3M 15.3 µM | HCT-116 2.8 µM | HOP-92 5.62 µM | U-251 7.29 µM | DMS-273 3.89 µM | NCI-H460 5.28 µM | SW-620 4.78 µM | M14 7.64 µM | OVCAR-4 7.11 µM | SNB-19 7.74 µM | UO-31 3.42 µM | SF-295 4.02 µM | RXF 393 22.2 µM | HOP-62 4.41 µM | LOX IMVI 4.29 µM | HOP-18 5.62 µM | SK-MEL-5 9.35 µM | CCRF-CEM 1.86 µM | OVCAR-5 14.3 µM | NCI-H226 3.99 µM | SN12C 8.38 µM | KM-20L2 3.99 µM | DMS-114 2.92 µM | UACC-257 3.38 µM | HL-60 2.02 µM | COLO 205 3.74 µM | LXFL 529 5.53 µM | CAKI-1 11.1 µM | 786-0 5.87 µM | HCC 2998 7.08 µM | SK-OV-3 42.8 µM | SK-MEL-2 5 µM | ACHN 6.05 µM | K562 9.33 µM
4.59 µM: HCT-15
